From ChEMBL document CHEMBL1142806, “Synthesis and assay of isoquinoline derivatives as HIV-1 Tat-TAR interaction inhibitors” (Bioorg Med Chem Lett, 2005)

Tests used:
[1] = Percent inhibition of SIV-induced syncytium in CEM174 cells; assay type: functional
[2] = Effective concentration required to inhibit SIV induced syncytium in CEM174 cells; assay type: functional, cell-based
[3] = Binding constant to TAR at 0.393e-4 M concentration
[4] = Binding constant to TAR at 0.814e-4 M concentration
[5] = Binding constant to TAR at 0.357e-4 M concentration
[6] = Binding constant to TAR at 1.107e-4 M concentration

| EC50 [2] [µM] | K [3] | K [4] | K [5] | K [6] | Structure (SMILES) | Inhibition [1] [%] |
| --- | --- | --- | --- | --- | --- | --- |
| 3.92 | 169000 |  |  |  | N=C(N)NCCCNC(=O)c1cc2ccccc2cn1.O=S(O)O | 60.7 |
| 12.9 |  | 33000 |  |  | NCCNC(=O)c1cc2ccccc2cn1 | 44.2 |
| 6.86 |  |  | 207000 |  | N=C(N)NCCNC(=O)c1cc2ccccc2cn1.O=S(O)O | 56.2 |
| 8.74 |  |  |  | 15400 | NCCCNC(=O)c1cc2ccccc2cn1 | 58.7 |
